From publication PMC11219860, “A chemogenetic approach for dopamine imaging with tunable sensitivity” (Nature Communications, 2024)

Legend:
[1] = test system: dLight1.3b-expressing HEK293T sniffer cells on primary DArgic neurons; assay: DA release imaging from cultured DArgic neurons with dLight1.3b sniffer cells; assay type: cell-based, mouse; conditions: 4-AP 250 µM in perfusion
Procedure: Primary DA (DA) neurons were grown on a layer of cortical astrocytes. The astrocytes were first prepared from P0-P2 C57BL6 mice, grown in T75 flask and then seeded on collagen/poly-L-lysine coated 15 mm glass coverslips at a concentration of 100,000 cells/ml. The cells were allowed to grow until close to confluence before the seeding of neurons. Primary DArgic neurons were prepared and cultured from P0-P2 mouse pups using a previously described protocol. Briefly, the ventral midbrain of P0-P2 pups was dissected from DAT^IREScre x Ai9 mice in which DA neurons expressed the red fluorescent protein tdTomato. These were produced by crossing DAT^IREScre mice (catalog #006660, Jackson Labs[31]) to Ai9/tdTomato mice (catalog #007905, Jackson Labs[32]). Both of these lines were on a C57BL/6 J background. Midbrain cells were seeded at a concentration of 240,000 cells/ml on top of the astrocyte monolayer and allowed to grow for 10 days (10 DIV). Two days before imaging, expression of dLight1.3b was induced in stable HEK cells with doxycycline. One day prior to imaging, HEK cells were lifted using trypsin, and 150,000 HEK cells were seeded on top of 10 DIV-cultured neurons in doxycycline-supplemented neuronal medium. Imaging was performed on a confocal microscope (Nikon A1 HD25) using a 40X dry objective and a 488 nm laser to excite dLight1.3b and a 546 nm laser to activate tdTomato and identify DA neurons. On the day of imaging, physiological saline containing drugs at the specified concentration ([…], Sigma; SCH23390, Sigma; DETQ, Enamine) were applied on the culture using a computer-controlled perfusion system (Automate system). A field containing one or more DA neurons was selected based on the tdTomato signal. […]
Event detection was performed using a thresholding algorithm adapted from[80]. In brief, the recorded field of view was divided into square ROIs of 55 um x 55 um size. […] A rolling standard deviation was calculated with the same window size. Events were defined as timepoints at which the fluorescence intensity reading exceeds the averaged intensity by 5 standard deviations.

DRD1-MSNs = assay: Whole-cell electrophysiology of DRD1-MSNs in dorsal striatum brain slices; assay type: cell-based, mouse
Procedure: For experiments involving SKF38393 application, to identify DRD1 receptor (DRD1)-positive neurons in the dorsal striatum, DRD1:cre mice injected with AAV5-hSyn-dlox-ChrimsonR-tdTomato were used. 3–4 weeks after viral injection, mice were anesthetized with 5% isoflurane and euthanized by decapitation. […] Slices were kept at 34 °C for 10–20 minutes and then at room temperature until recordings. In the recording chamber, slices were superfused with ACSF at 30–32 °C. Patch pipettes (3–7 MΩ) were pulled from borosilicate glass pipettes (GC150T-10, Harvard Apparatus). The internal solution contained (in mM): potassium gluconate 130, MgCl2 4, MgATP 3.4, Na3GTP 0.1, creatine phosphate 10, HEPES 5, and EGTA 1.1. The membrane potential was measured using EPC 10 USB Patch Clamp Amplifiers (HEKA). The access resistance was monitored by a hyperpolarizing step of −10 mV. The identification of DRD1-positive neurons was performed by the presence of red fluorescence protein and photo-evoked current or potential (@2 Hz, 10 ms duration, 2 pulses or 500 ms continuous pulse. light source: Colibri 7, Zeiss; 630 nm wavelength, 1 mW). To assess the excitability of neurons, positive currents were injected (0–500 pA) and the number of action potentials was counted at each current step. To measure input resistance, negative currents were injected (−200 to 0 pA, every 50 pA, 500 ms), as previously described. The resting membrane potential was measured at 0 pA current input.
Action potentials were evoked by current injection (50–500 pA, 500 ms) in current-clamped neurons. Neurons were recorded from in the presence of picrotoxin (100 µM), CGP55485 (0.3 µM), DNQX (10 µM), and MK801 (10 µM) to block GABAA, GABAB, AMPA and NMDA receptors, respectively. DA (10 µM) was applied to brain slices in the presence of cocaine (5 µM) to prevent reuptake.

human DRD1 (hmDRD1) = conditions: human clones; ref Hao et al., 2019; Wang et al., 2018; cited from earlier work
msDRD1 = target: T1, msDRD1 (Mus musculus, UniProt Q61616); conditions: rodent (rat or mouse); ref Hao et al., 2019; Wang et al., 2018; cited from earlier work
T1 construct: expressed in transfected cells; host or cells: HEK293T
T1 sequence (Q61616 whole entry): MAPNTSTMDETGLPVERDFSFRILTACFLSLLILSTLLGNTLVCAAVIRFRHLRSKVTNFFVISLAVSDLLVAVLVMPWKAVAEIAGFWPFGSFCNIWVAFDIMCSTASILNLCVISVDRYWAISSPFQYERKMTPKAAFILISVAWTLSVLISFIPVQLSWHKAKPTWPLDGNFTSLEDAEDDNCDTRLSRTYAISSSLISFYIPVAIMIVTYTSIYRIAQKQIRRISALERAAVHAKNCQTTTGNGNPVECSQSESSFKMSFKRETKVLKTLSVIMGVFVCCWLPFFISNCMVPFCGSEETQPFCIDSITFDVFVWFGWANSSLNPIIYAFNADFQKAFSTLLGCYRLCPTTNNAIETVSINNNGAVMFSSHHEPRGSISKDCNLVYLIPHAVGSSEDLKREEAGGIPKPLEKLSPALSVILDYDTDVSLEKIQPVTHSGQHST

dLight1.3b = dLight1.3b (Homo sapiens, UniProt P21728); assay: DA titrations on dLight1.3b-expressing HEK293 cells (confocal fluorescence imaging); assay type: cell-based; conditions: D1-PAM 5 μM
Procedure: Cells were transfected at 50–60% confluency in glass-bottomed dishes (either individually or in 24-well plates) using the Effectene transfection kit (Qiagen) according to manufacturer instructions, and imaged 24–48 h after transfection. The Flp-In™ T-REx™ 293 cells (Thermo Fisher) with a stably integrated dLight1.3b cassette[48] were cultured as follows: the cells were cultured using HEK293T cell medium with the addition of Blasticidin (15 µg/ml) and Hygromycin B (200 µg/ml). To induce the expression of dLight1.3b, doxycycline (500 ng/ml) was added to the culture medium for 24–48 hours. Before imaging, cells were rinsed with 1 mL of Hank’s Balanced Salt Solution (HBSS, Life Technologies) supplemented with Ca^2+ (2 mM) and Mg^2+ (1 mM), and imaged at room temperature with a final HBSS volume of either 100 µL for each individual 1.5 cm glass bottom dish, or 500 µL for 24-well plates. Time-lapse imaging was performed on an inverted Zeiss LSM 800 confocal microscope using a 488 nm laser and a 40X oil-based objective. During imaging, ligands were added in bolus on the cells using a micropipette to reach the final specified concentrations of ligand over the cells. For quantification, except otherwise noted, regions of interest (ROI) were selected manually using the threshold function of Fiji to isolate the cell membrane. Sensor response (∆F/F) was calculated as the following: (F(t)-F_base)/F_base with F(t) being the ROI fluorescence value at each time point (t), and F_base being the mean fluorescence of the 10-time points immediately prior to ligand addition.

With Nc1ccncc1 [4-AP, 4-aminopyridine] as the compound, how does the DA release events [1] read?
Its DA release events is “larger localized DA release events started to become noticeable”.

With NCCc1ccc(O)c(O)c1 [DA, Dopamine] as the compound, how does the “number of action potentials evoked by current injection” value (DRD1-MSNs; DA 10 µM bath application vs control) read?
The value was “increased the number of action potentials”.

Which results are given for C[C@H]1c2cccc(CCC(C)(C)O)c2C[C@H](CO)N1C(=O)Cc1c(Cl)cccc1Cl [LY315207, 2-(2,6-Dichlorophenyl)-1-((1S,3R)-5-(3-hydroxy-3-methylbutyl)-3-(hydroxymethyl)-1-methyl-3,4-dihydroisoquinolin-2(1H)-yl)ethan-1-one]?
maximal potentiation of dopamine (human DRD1 (hmDRD1)): 75-85%; partial potentiation of dopamine (% of max potentiation) (msDRD1): 45-53%

Which “effect on the DA sensitivity of dLight1.3b” value (dLight1.3b) does the source give for Cn1c2ccccc2c(=O)c2c(=O)n(-c3ccccc3)c(C3CCCCC3)nc21 [MLS1082] here?
The value was “did not have a noticeable effect”.

For CC(C)(C)C1CCc2c(sc(NC(=O)c3ccncc3)c2C(N)=O)C1 (stereo not shown) [MLS6585], which “effect on the DA sensitivity of dLight1.3b” value (dLight1.3b) is on record?
Its value is “did not have a noticeable effect”.

For Oc1cc2c(cc1O)C(c1ccccc1)CNCC2 (stereo not shown) [SKF38393], which “firing rate during current-injection of DRD1-MSNs” value (DRD1-MSNs; SKF38393 1 µM superfusion) is on record?
The value was “significant increase”.
